Measurements reported in ChEMBL document CHEMBL1154343, “Synthesis and biological evaluation of pyrrolopyridazine derivatives as novel HER-2 tyrosine kinase inhibitors” (Bioorg Med Chem Lett, 2009).

Columns and labels:
[1] = target: T1, Epidermal growth factor receptor (Homo sapiens, UniProt P00533); assay: Inhibition of EGFR by HTRF assay
[2] = target: T1, Epidermal growth factor receptor; assay: Inhibition of EGFR in human A431 cells by HTRF assay
[3] = target: T2, Receptor tyrosine-protein kinase erbB-2 (Homo sapiens, UniProt P04626); assay: Inhibition of HER2 in human SKBR3 cells by HTRF assay
[4] = target: T2, Receptor tyrosine-protein kinase erbB-2; assay: Inhibition of HER2 by HTRF assay

T2 sequence (P04626 whole entry): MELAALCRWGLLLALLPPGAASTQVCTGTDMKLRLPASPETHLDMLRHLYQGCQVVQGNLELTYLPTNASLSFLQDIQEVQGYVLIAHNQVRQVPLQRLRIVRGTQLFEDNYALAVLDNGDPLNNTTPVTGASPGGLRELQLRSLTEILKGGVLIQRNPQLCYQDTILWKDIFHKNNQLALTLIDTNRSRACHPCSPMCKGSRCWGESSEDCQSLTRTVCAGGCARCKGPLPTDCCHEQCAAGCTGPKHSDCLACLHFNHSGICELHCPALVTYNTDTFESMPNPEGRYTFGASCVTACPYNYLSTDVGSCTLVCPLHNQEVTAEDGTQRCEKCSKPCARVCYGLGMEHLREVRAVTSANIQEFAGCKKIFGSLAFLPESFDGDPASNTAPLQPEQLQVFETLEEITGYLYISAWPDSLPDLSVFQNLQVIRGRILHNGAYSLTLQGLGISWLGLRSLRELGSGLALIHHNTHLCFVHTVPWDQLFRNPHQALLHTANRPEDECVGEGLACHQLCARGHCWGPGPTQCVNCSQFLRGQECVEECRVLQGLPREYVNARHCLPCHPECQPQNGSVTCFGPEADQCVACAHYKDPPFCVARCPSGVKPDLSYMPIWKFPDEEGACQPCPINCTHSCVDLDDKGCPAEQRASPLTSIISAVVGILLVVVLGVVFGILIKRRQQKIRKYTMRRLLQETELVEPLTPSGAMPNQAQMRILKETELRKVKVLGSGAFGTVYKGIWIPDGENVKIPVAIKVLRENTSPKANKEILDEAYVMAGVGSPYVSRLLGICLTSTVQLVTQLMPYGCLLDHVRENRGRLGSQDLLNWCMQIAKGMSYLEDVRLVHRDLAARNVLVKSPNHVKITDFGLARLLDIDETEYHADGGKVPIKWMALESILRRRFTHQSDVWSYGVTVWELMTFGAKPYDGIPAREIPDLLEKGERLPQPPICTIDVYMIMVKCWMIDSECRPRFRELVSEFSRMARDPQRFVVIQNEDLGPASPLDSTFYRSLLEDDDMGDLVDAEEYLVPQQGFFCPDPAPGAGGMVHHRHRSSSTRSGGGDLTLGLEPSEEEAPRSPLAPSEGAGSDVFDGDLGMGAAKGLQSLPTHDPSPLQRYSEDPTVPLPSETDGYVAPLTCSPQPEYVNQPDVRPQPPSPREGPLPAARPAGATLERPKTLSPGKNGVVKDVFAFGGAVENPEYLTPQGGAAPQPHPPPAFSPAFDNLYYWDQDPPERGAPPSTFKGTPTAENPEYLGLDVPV
T1 sequence (P00533 whole entry): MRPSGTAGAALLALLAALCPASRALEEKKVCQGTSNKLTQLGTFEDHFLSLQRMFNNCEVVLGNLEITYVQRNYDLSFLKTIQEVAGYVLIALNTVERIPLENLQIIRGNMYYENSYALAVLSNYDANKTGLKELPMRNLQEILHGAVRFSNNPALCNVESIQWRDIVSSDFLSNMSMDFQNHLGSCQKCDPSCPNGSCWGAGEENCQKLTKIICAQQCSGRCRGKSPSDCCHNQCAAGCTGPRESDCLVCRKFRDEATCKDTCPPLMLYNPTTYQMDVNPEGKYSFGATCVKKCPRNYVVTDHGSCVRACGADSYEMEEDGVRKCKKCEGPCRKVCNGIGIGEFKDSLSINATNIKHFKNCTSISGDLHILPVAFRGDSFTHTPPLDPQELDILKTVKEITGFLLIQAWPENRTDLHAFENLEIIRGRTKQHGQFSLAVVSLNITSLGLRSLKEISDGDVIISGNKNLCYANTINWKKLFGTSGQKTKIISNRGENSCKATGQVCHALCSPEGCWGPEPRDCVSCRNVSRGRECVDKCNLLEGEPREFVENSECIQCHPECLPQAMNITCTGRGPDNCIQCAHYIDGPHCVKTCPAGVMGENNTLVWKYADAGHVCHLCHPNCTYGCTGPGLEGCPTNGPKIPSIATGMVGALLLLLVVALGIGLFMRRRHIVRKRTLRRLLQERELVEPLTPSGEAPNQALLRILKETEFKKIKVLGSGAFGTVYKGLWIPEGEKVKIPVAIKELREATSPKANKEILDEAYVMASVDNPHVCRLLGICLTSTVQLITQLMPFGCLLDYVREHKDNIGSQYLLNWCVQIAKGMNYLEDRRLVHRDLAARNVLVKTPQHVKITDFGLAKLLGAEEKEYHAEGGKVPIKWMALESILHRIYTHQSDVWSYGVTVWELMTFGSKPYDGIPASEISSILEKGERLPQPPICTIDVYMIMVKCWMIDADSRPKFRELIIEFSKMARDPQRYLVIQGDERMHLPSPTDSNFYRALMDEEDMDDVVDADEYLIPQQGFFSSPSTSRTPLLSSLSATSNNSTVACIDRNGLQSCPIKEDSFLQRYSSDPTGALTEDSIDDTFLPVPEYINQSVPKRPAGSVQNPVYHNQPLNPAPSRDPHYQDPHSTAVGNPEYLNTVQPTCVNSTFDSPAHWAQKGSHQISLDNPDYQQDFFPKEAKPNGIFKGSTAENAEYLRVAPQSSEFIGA

SMILES	IC50 [1] [µM]	IC50 [2] [µM]	IC50 [3] [µM]	IC50 [4] [µM]
Cc1c(C(=O)NCCCN2CCN(C)CC2)[nH]c2cnnc(Nc3ccc(OCc4cccc(F)c4)c(Cl)c3)c12	> 10	0.98	2.24	
Cc1c(C(=O)NCCN2CCOCC2)[nH]c2cnnc(Nc3ccc(OCc4cccc(F)c4)c(Cl)c3)c12	5	12.7	> 5	0.004
CCN(CC)CCNC(=O)c1cc2cnnc(Nc3ccc(OCc4cccc(F)c4)c(Cl)c3)c2[nH]1	> 10	77.2	3.84	
Cc1c(C(=O)NCCN2CCOCC2)[nH]c2cnnc(Nc3ccc(OCc4ccccn4)c(Cl)c3)c12			> 5	

The next compounds have a lower IC50 [3] than those just listed; values first:

IC50 [1] [µM]	IC50 [2] [µM]	IC50 [3] [µM]	IC50 [4] [µM]	SMILES
> 10	0.257	0.843		Cc1c(C(=O)NCCN2CCN(C)CC2)[nH]c2cnnc(Nc3ccc(OCc4cccc(F)c4)c(Cl)c3)c12
> 10	15.1	0.62		O=C(NCCN1CCCC1)c1cc2cnnc(Nc3ccc(OCc4cccc(F)c4)c(Cl)c3)c2[nH]1
1.28	1.16	0.96	0.007	CCN(CC)CCNC(=O)c1[nH]c2cnnc(Nc3ccc(OCc4cccc(F)c4)c(Cl)c3)c2c1C
> 10	1.21	0.934		CCOC(=O)c1[nH]c(C)c2cnnc(Nc3ccc(OCc4cccc(F)c4)c(Cl)c3)c12
